# Data as given in patent US20230174484A1, “ANTAGONISTS OF GPR39 PROTEIN” (Oregon Health & Science University, priority 2020, published 2023).
# Target: T1, human GPR39 receptor (Homo sapiens, UniProt O43194)
# T1 construct: PC3 Cells, Expressing the Endogenous Human GPR39 Receptor; endogenous in cells; host or cells: PC3 (human prostate adenocarcinoma) cells
# T1 sequence (O43194 1-453): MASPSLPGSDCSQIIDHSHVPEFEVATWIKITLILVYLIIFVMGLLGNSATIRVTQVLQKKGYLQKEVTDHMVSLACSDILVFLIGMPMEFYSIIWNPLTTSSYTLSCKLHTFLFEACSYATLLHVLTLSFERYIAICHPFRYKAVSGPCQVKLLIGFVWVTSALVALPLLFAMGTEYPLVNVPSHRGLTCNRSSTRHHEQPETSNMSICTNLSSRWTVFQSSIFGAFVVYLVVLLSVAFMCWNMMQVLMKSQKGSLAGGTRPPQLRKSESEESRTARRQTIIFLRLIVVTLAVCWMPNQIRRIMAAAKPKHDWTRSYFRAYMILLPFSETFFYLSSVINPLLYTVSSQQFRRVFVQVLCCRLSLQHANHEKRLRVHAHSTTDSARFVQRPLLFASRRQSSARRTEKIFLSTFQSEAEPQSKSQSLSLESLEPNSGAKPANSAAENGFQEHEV
# Assay: Measurement of intracellular calcium response in PC3 cells (FLIPR), antagonism of the C3 agonist response
# Format: cell-based
# Details: functional pKi (modified Cheng-Prusoff), inhibition of the C3 (TC-G 1008) response at EC90, 30 μM ZnCl2, read-out: fpKi activity
# Experimental: Human prostate adenocarcinoma (PC3) cells endogenously expressing human GPR39 receptor were seeded into black walls clear-base 384-well plates at a density of 7,500 cells per well in DM EM (Low Glucose) supplemented with 10% heat-inactivated foetal bovine serum and 1% of Pen/Strep and grown overnight at 37° C., 5% CO2. After washing with assay buffer (20 mM HEPES, 137 mM NaCI, 5.4 mM KCI, 10 mM glucose, 0.8 mM MgSO4, 1.3 mM CaCl2, 0.3 mM Na2HPO4, 0.4 mM KH2PO4 4.2 mM NaHCO3, pH 7.4), cells were incubated with Calcium-6 probe (Molecular Devices) at 37° C. for 2h and then equilibrated at RT for 30 minutes on metal block. The fluorescence was measured in real time by Fluorometric Imaging Plate Reader (FLIPR TETRA, Molecular Devices) (excitation wavelength at 470-495 nm, emission wavelength at 515-575 nm).
# Compounds of invention were serially diluted in neat DMSO at 1000 fold concentrations and plated into 384-well plates and then 200-fold diluted in assay buffer containing 150 uM ZnCl2 (30 μM final concentration) and […].
# Fluorescence was monitored throughout the run assay. The peak of Ca2+stimulation (baseline subtracted) was expressed as percentage of the maximal inhibition of the EC90 C3 response and was plotted versus the concentration of test compound. Curve fitting and IC50 estimations are carried out using a four-parameter logistic model using XLfit Software.
# The potency of compounds was reported as functional pKi (—Log10Ki) obtained using the modified Cheng-Prusoff relationship (Cheng, Y., Prusoff, W. H. 1973.)
# fKi =IC50/(1+[L]/EC50) where IC50 is the concentration of antagonist required for 50% inhibition of the maximum response, [L] is the concentration of the agonist used (EC90) and EC50 is the concentration of agonist need to induced 50% of the maximum response (obtained in each experimental plate).
# An fpKi less than 5.2 is reported as “+/±”. An fpKi ranging from 5.2 to 5.9 is reported as “+”. An fpKi from 6.0 to 6.5 is reported as “++”. An fpKi from 6.6 to 7.2 is reported as “+++”. An fpKi equal to or greater than 7.3 is reported as “++++”.
row,Ki [nM],SMILES
1,1260 to 6310,O=C(Nc1ccc(C(=O)N2CCNCC2c2ccccc2F)c(N2CCCC2)c1)C1CC1 (racemic) [Example 157]
2,≤ 50.1,"CN1CCN(C(=O)c2ccc(NC(=O)C3CC3)cc2N2CCCC2)C(c2cccc(Cl)c2)C1 (racemic) [Example 171c, N-[4-[2-(3-chlorophenyl)-4-methylpiperazine-1-carbonyl]-3-pyrrolidin-1-ylphenyl]cyclopropanecarboxamide]"
3,63.1 to 251,"O=C(Nc1ccc(C(=O)N2CCS(=O)(=O)CC2)c(N2CCCC(C(F)(F)F)C2)c1)C1CC1 (racemic) [Example 185c, N-[4-(1,1-dioxo-1,4-thiazinane-4-carbonyl)-3-[3-(trifluoromethyl)piperidin-1-yl]phenyl]cyclopropanecarboxamide]"
4,316 to 1000,"O=C(Nc1ccc(C(=O)N2CCS(=O)(=O)CC2)c(N2CCOC(C(F)(F)F)C2)c1)C1CC1 (racemic) [Example 186, N-[4-(1,1-dioxo-1,4-thiazinane-4-carbonyl)-3-[2-(trifluoromethyl)morpholinyl]phenyl]cyclopropanecarboxamide]"
5,63.1 to 251,"CN1CCN(C(=O)c2ccc(NC(=O)C3CC3)cc2N2CCCCC2)C(c2ccccc2)C1 (racemic) [Example 201c, N-[4-(4-methyl-2-phenylpiperazine-1-carbonyl)-3-piperidin-1-ylphenyl]cyclopropanecarboxamide]"
6,63.1 to 251,"CN1CCN(C(=O)c2ccc(NC(=O)C3CC3)cc2N2CCC(F)(F)C2)C(c2ccccc2)C1 (racemic) [Example 202c, N-[3-(3,3-difluoropyrrolidin-1-yl)-4-(4-methyl-2-phenylpiperazine-1-carbonyl)phenyl]cyclopropanecarboxamide]"
7,63.1 to 251,"CN1CCN(C(=O)c2ccc(NC(=O)C3CC3)cc2N2CCC3(COC3)C2)C(c2ccccc2Cl)C1 (racemic) [Example 211, N-[4-[2-(2-chlorophenyl)-4-methylpiperazine-1-carbonyl]-3-(2-oxa-7-azaspiro[3.4]octan-7-yl)phenyl]cyclopropanecarboxamide]"
8,316 to 1000,"C[C@@H]1C[C@@H](C)CN(c2cc(NC(=O)C3CC3)ccc2-c2ncc3n2CCN(C)C3)C1 (relative stereo) [Example 104a, N-[3-(3,5-dimethylpiperidin-1-yl)-4-(7-methyl-6,8-dihydro-5H-imidazo[1,5-a]pyrazin-3-yl)phenyl] cyclopropanecarboxamide]"
9,63.1 to 251,"C[C@@H]1C[C@@H](C)CN(c2cc(NC(=O)C3CC3)ccc2-c2nnc(Sc3ccccc3)n2C)C1 (relative stereo) [Example 114a, N-[3-(3,5-dimethylpiperidin-1-yl)-4-(4-methyl-5-phenylsulfanyl-1,2,4-triazol-3-yl)phenyl]cyclopropanecarboxamide]"

# The remaining lines, values behind:
row,SMILES,Ki [nM]
1,"Cc1ccn(-c2cc(NC(=O)C3CC3)ccc2C(=O)N2CCN(C)CC2c2ccccc2)n1 (racemic) [Example 155c, N-[4-(4-methyl-2-phenylpiperazine-1-carbonyl)-3-(3-methylpyrazol-1-yl)phenyl]cyclopropanecarboxamide]",316 to 1000
2,"O=C(Nc1ccc(C(=O)N2CCOCC2c2ccccc2)c(N2CCCC2)c1)C1CC1 (racemic) [Example 167, N-[4-(3-phenylmorpholine-4-carbonyl)-3-pyrrolidin-1-ylphenyl]cyclopropanecarboxamide]",63.1 to 251
3,"O=C(Nc1ccc(C(=O)N2CC[S+]([O-])CC2c2ccccc2)c(N2CCCC2)c1)C1CC1 (racemic) [Example 169, N-[4-(1-oxo-3-phenyl-1,4-thiazinane-4-carbonyl)-3-pyrrolidin-1-ylphenyl]cyclopropanecarboxamide]",1260 to 6310
4,"CN1CCN(C(=O)c2ccc(NC(=O)C3CC3)cc2N2CCCC2)C(c2ccccc2Cl)C1 (racemic) [Example 170c, N-[4-[2-(2-chlorophenyl)-4-methylpiperazine-1-carbonyl]-3-pyrrolidin-1-ylphenyl]cyclopropanecarboxamide]",≤ 50.1
5,"CN1CCN(C(=O)c2ccc(NC(=O)C3CC3)cc2N2CCCC2)C(c2cncc(Cl)c2)C1 (racemic) [Example 172, N-[4-[2-(5-chloropyridin-3-yl)-4-methylpiperazine-1-carbonyl]-3-pyrrolidin-1ylphenyl]cyclopropanecarboxamide]",63.1 to 251
6,"CN1CCN(C(=O)c2ccc(NC(=O)C3CC3)cc2N2CCCC2)C(c2cccnc2)C1 (racemic) [Example 173, N-[4-(4-methyl-2-pyridin-3-ylpiperazine-1-carbonyl)-3-pyrrolidin-1-ylphenyl]cyclopropanecarboxamide]",316 to 1000
7,"CN1CCN(C(=O)c2ccc(NC(=O)C3CC3)cc2N2CCCC2)C(c2ccncc2Cl)C1 (racemic) [Example 174, N-[4-[2-(3-chloropyridin-4-yl)-4-methylpiperazine-1-carbonyl]-3-pyrrolidin-1-ylphenyl]cyclopropanecarboxamide]",63.1 to 251
8,"CN1CCN(C(=O)c2ccc(NC(=O)C3CC3)cc2N2CCCC2)C(c2cncnc2)C1 (racemic) [Example 175, N-[4-(4-methyl-2-pyrimidin-5-ylpiperazine-1-carbonyl)-3-pyrrolidinylphenyl]cyclopropanecarboxamide]",316 to 1000
9,"CN1CCN(C(=O)c2ccc(NC(=O)C3CC3)cc2N2CCCC2)C(c2ccc(Cl)cc2)C1 (racemic) [Example 176, N-[4-[2-(4-chlorophenyl)-4-methylpiperazine-1-carbonyl]-3-pyrrolidin-1-ylphenyl]cyclopropanecarboxamide]",316 to 1000
10,"O=C(Nc1ccc(C(=O)N2CCS(=O)(=O)CC2)c(N2CCC(C(F)(F)F)C2)c1)C1CC1 (racemic) [Example 183c, N-[4-(1,1-dioxo-1,4-thiazinane-4-carbonyl)-3-[3-(trifluoromethyl)pyrrolidin-1-yl]phenyl]cyclopropanecarboxamide]",63.1 to 251
11,"CC1CN(c2cc(NC(=O)C3CC3)ccc2C(=O)N2CCS(=O)(=O)CC2)CC(C)O1 (racemic) [Example 188, N-[3-[(anti)-2,6-dimethylmorpholin-4-yl]-4-(1,1-dioxo-1,4-thiazinane-4-carbonyl)phenyl]cyclopropanecarboxamide]",1260 to 6310
12,"O=C(Nc1ccc(C(=O)N2CCC3(CC2)COC3)c(N2CCC(C(F)(F)F)C2)c1)C1CC1 (racemic) [Example 213c, N-[4-(2-oxa-7-azaspiro[3.5]nonane-7-carbonyl)-3-[3-(trifluoromethyl)pyrrolidin-1-yl]phenyl]cyclopropanecarboxamide]",63.1 to 251
13,CCCN1CCN(C(=O)c2ccc(NC(=O)C3CC3)cc2N2C[C@@H](C)C[C@H](C)C2)CC1 (relative stereo) [Example 14b],63.1 to 251
14,"CCCN1CCN(C(=O)c2ccc(NC(=O)C3CC3)cc2N2CCC(C)C2)CC1 (single isomer, unassigned) [Example 13a, N-(3-[(3R or 3S] 3-methylpyrrolidin-1-yl]-4-(4-propylpiperazine-1-carbonyl)phenyl) cyclopropanecarboxamide]",63.1 to 251
15,"CN1CCN(C(=O)c2ccc(NC(=O)C3CC3)cc2N2CCCC2)C(c2ccccc2)C1 (single isomer, unassigned) [Example 62a, (2R or 2S) n-[4-(4-methyl-2-phenylpiperazine-1-carbonyl)-3-pyrrolidin-1-ylphenyl] Cyclopropanecarboxamide]",≤ 50.1
